In US8952024B2, “Herbicidal pyrimidone derivatives” (E I du Pont de Nemours and Company, priority 2009, dated 2015):

Assays:
Test in all cases: Test B pre-/postemergence plant response
Assay type in all cases: in vivo
[1] = tested on: large crabgrass (Digitaria sanguinalis)
Excerpt: (§1) Seeds of plant species selected from blackgrass (Alopecurus myosuroides), downy bromegrass (Bromus tectorum), green foxtail (Setaria viridis), Italian ryegrass (Lolium multiflorum), wheat (Triticum aestivum), wild oat (Avena fatua), deadnettle (henbit deadnettle, Lamium amplexicaule), galium (catchweed bedstraw, Galium aparine), bermudagrass (Cynodon dactylon), Surinam grass (Brachiaria decumbens), cocklebur (Xanthium strumarium), corn (Zea mays), large crabgrass (Digitaria sanguinalis), woolly cupgrass (Eriochloa villosa), giant foxtail (Setaria faberii), goosegrass (Eleusine indica), johnsongrass (Sorghum halepense), kochia (Kochia scoparia), lambsquarters (Chenopodium album), morningglory (Ipomoea coccinea), nightshade (eastern black nightshade, Solanum ptycanthum), yellow nutsedge (Cyperus esculentus), pigweed (Amaranthus retroflexus), ragweed (common ragweed, Ambrosia elatior), Russian thistle (Salsola kali), soybean (Glycine max), sunflower (common oilseed sunflower, Helianthus annuus) and velvetleaf (Abutilon theophrasti) were planted into a blend of loam soil and sand and treated preemergence with test compounds formulated in a non-phytotoxic solvent mixture which included a surfactant.
(§2) At the same time, plants selected from these crop and weed species and also winter barley (Hordeum vulgare), canarygrass (Phalaris minor), chickweed (Stellaria media) and windgrass (Apera spica-venti) were planted in pots containing Redi-Earth® planting medium (Scotts Company, 14111 Scottslawn Road, Marysville, Ohio 43041) comprising spaghnum peat moss, vermiculite, wetting agent and starter nutrients and treated with postemergence applications of some of the test chemicals formulated in the same manner. Plants ranged in height from 2 to 18 cm (1- to 4-leaf stage) for postemergence treatments.
(§3) Treated plants and controls were maintained in a greenhouse for 13 to 15 days, after which time all treated plants were visually evaluated and compared to controls. Plant response ratings, summarized in Table B, are based on a scale of 0 to 100 where 0 is no effect and 100 is complete control. A dash (-) response means no test result.

[2] = tested on: green foxtail (Setaria viridis)
Excerpt: as §1, §2, §3

[3] = tested on: velvetleaf (Abutilon theophrasti)
Excerpt: as §1, §2, §3

[4] = tested on: pigweed (Amaranthus retroflexus)
Excerpt: as §1, §2, §3

[5] = tested on: Surinam grass (Brachiaria decumbens)
Excerpt: as §1, §2, §3

[6] = tested on: downy bromegrass (Bromus tectorum)
Excerpt: as §1, §2, §3

wild oat (Avena fatua) = tested on: wild oat (Avena fatua)
Excerpt: as §1, §2, §3

[7] = tested on: ragweed (common ragweed, Ambrosia elatior)
Excerpt: as §1, §2, §3

[8] = tested on: yellow nutsedge (Cyperus esculentus)
Excerpt: as §1, §2, §3

kochia (Kochia scoparia) = conditions: Preemergence
Excerpt: as §1, §2, §3

[9] = tested on: bermudagrass (Cynodon dactylon)
Excerpt: as §1, §2, §3

[10] = tested on: Italian ryegrass (Lolium multiflorum)
Excerpt: as §1, §2, §3

corn (Zea mays) = tested on: corn (Zea mays)
Excerpt: as §1, §2, §3

soybean (Glycine max) = tested on: soybean (Glycine max)
Excerpt: as §1, §2, §3

[11] = tested on: cocklebur (Xanthium strumarium)
Excerpt: as §1, §2, §3

[12] = tested on: lambsquarters (Chenopodium album)
Excerpt: as §1, §2, §3

[13] = tested on: blackgrass (Alopecurus myosuroides)
Excerpt: as §1, §2, §3

[14] = 250 g ai/ha, Preemergence, 0 to 100 scale
[15] = Postemergence, 31 g ai/ha, scale 0 to 100 (0 no effect, 100 complete control)
[16] = Postemergence, 62 g ai/ha, scale 0 (no effect) to 100 (complete control), 13 to 15 days
[17] = Postemergence, 125 g ai/ha, visual rating after 13 to 15 days, scale 0 (no effect) to 100 (complete control)
[18] = Postemergence, 250 g ai/ha, scale 0 to 100
[19] = Preemergence, 31 g ai/ha, scale 0 to 100 (0 no effect, 100 complete control)
[20] = Preemergence, 62 g ai/ha, scale 0 to 100, 0 no effect, 100 complete control
[21] = Preemergence, 125 g ai/ha, 0 to 100 scale

SMILES: O=C1CCCC([O-])=C1C(=O)c1cnc(-c2ccccc2)n(-c2ccccc2)c1=O.[K+] [Compound 14]
- Plant response rating, Crabgrass, Large [1, 14]: 100
- Plant response rating, Crabgrass, Large [1, 15]: 50
- Plant response rating, Crabgrass, Large [1, 16]: 55
- Plant response rating, Crabgrass, Large [1, 17]: 85
- Crabgrass, Large plant response rating [1, 18]: 85
- Plant response rating, Crabgrass, Large [1, 19]: 5
- Plant response rating, Crabgrass, Large [1, 20]: 50
- Crabgrass, Large plant response rating [1, 21]: 100
- Plant response rating, Foxtail, Green [2, 14]: 60
- Plant response rating, Foxtail, Green [2, 15]: 45
- Plant response rating, Foxtail, Green [2, 16]: 45
- Plant response rating, Foxtail, Green [2, 17]: 50
- Foxtail, Green plant response rating [2, 18]: 85
- Plant response rating, Foxtail, Green [2, 19]: 0
- Plant response rating, Foxtail, Green [2, 20]: 0
- Foxtail, Green plant response rating [2, 21]: 10
- Plant response rating, Velvetleaf [3, 14]: 100
- Plant response rating, Velvetleaf [3, 15]: 85
- Plant response rating, Velvetleaf [3, 16]: 90
- Plant response rating, Velvetleaf [3, 17]: 90
- Velvetleaf plant response rating [3, 18]: 100
- Plant response rating, Velvetleaf [3, 19]: 70
- Plant response rating, Velvetleaf [3, 20]: 98
- Velvetleaf plant response rating [3, 21]: 100
- Plant response rating, Pigweed [4, 14]: 100
- Plant response rating, Pigweed [4, 15]: 80
- Plant response rating, Pigweed [4, 16]: 80
- Plant response rating, Pigweed [4, 17]: 80
- Pigweed plant response rating [4, 18]: 98
- Plant response rating, Pigweed [4, 19]: 90
- Plant response rating, Pigweed [4, 20]: 98
- Pigweed plant response rating [4, 21]: 100
- Plant response rating, Surinam Grass [5, 14]: 80
- Plant response rating, Surinam Grass [5, 15]: 40
- Plant response rating, Surinam Grass [5, 16]: 50
- Plant response rating, Surinam Grass [5, 17]: 50
- Surinam Grass plant response rating [5, 18]: 55
- Plant response rating, Surinam Grass [5, 19]: 0
- Plant response rating, Surinam Grass [5, 20]: 5
- Surinam Grass plant response rating [5, 21]: 60
- Plant response rating, Bromegrass, Downy [6, 14]: 0
- Plant response rating, Bromegrass, Downy [6, 15]: 10
- Plant response rating, Bromegrass, Downy [6, 16]: 30
- Plant response rating, Bromegrass, Downy [6, 17]: 50
- Bromegrass, Downy plant response rating [6, 18]: 70
- Plant response rating, Bromegrass, Downy [6, 19]: 0
- Plant response rating, Bromegrass, Downy [6, 20]: 0
- Bromegrass, Downy plant response rating [6, 21]: 0
- Plant response rating, Oat, Wild (wild oat (Avena fatua); [14]): 0
- Plant response rating, Oat, Wild (wild oat (Avena fatua); [15]): 30
- Plant response rating, Oat, Wild (wild oat (Avena fatua); [16]): 40
- Plant response rating, Oat, Wild (wild oat (Avena fatua); [17]): 50
- Oat, Wild plant response rating (wild oat (Avena fatua); [18]): 50
- Plant response rating, Oat, Wild (wild oat (Avena fatua); [19]): 0
- Plant response rating, Oat, Wild (wild oat (Avena fatua); [20]): 0
- Oat, Wild plant response rating (wild oat (Avena fatua); [21]): 0
- Plant response rating, Ragweed [7, 14]: 90
- Plant response rating, Ragweed [7, 15]: 80
- Plant response rating, Ragweed [7, 16]: 80
- Plant response rating, Ragweed [7, 17]: 85
- Ragweed plant response rating [7, 18]: 98
- Plant response rating, Ragweed [7, 19]: 70
- Plant response rating, Ragweed [7, 20]: 90
- Ragweed plant response rating [7, 21]: 90
- Plant response rating, Nutsedge, Yellow [8, 14]: 85
- Plant response rating, Nutsedge, Yellow [8, 15]: 20
- Plant response rating, Nutsedge, Yellow [8, 16]: 30
- Plant response rating, Nutsedge, Yellow [8, 17]: 30
- Nutsedge, Yellow plant response rating [8, 18]: 50
- Plant response rating, Nutsedge, Yellow [8, 19]: 0
- Plant response rating, Nutsedge, Yellow [8, 20]: 30
- Nutsedge, Yellow plant response rating [8, 21]: 40
- Plant response rating, Kochia (kochia (Kochia scoparia); 250 g ai/ha, 0 to 100 scale): 100
- Plant response rating, Kochia (kochia (Kochia scoparia); 31 g ai/ha, scale 0 to 100 (0 no effect, 100 complete control)): 85
- Plant response rating, Kochia (kochia (Kochia scoparia); 62 g ai/ha, scale 0 to 100, 0 no effect, 100 complete control): 100
- Kochia plant response rating (kochia (Kochia scoparia); 125 g ai/ha, 0 to 100 scale): 100
- Plant response rating, Bermudagrass [9, 14]: 100
- Plant response rating, Bermudagrass [9, 15]: 70
- Plant response rating, Bermudagrass [9, 16]: 70
- Plant response rating, Bermudagrass ([9]; Postemergence, 125 g ai/ha, scale 0 to 100 (0 no effect, 100 complete control), 13 to 15 days): 80
- Bermudagrass plant response rating [9, 18]: 80
- Plant response rating, Bermudagrass [9, 19]: 70
- Plant response rating, Bermudagrass [9, 20]: 75
- Bermudagrass plant response rating [9, 21]: 100
- Plant response rating, Ryegrass, Italian [10, 14]: 0
- Plant response rating, Ryegrass, Italian [10, 15]: 0
- Plant response rating, Ryegrass, Italian [10, 16]: 5
- Plant response rating, Ryegrass, Italian [10, 17]: 5
- Ryegrass, Italian plant response rating [10, 18]: 50
- Plant response rating, Ryegrass, Italian [10, 19]: 0
- Plant response rating, Ryegrass, Italian [10, 20]: 0
- Ryegrass, Italian plant response rating [10, 21]: 0
- Plant response rating, Corn (corn (Zea mays); [14]): 10
- Plant response rating, Corn (corn (Zea mays); [15]): 10
- Plant response rating, Corn (corn (Zea mays); [16]): 40
- Plant response rating, Corn (corn (Zea mays); [17]): 45
- Corn plant response rating (corn (Zea mays); [18]): 70
- Plant response rating, Corn (corn (Zea mays); [19]): 0
- Plant response rating, Corn (corn (Zea mays); [20]): 0
- Corn plant response rating (corn (Zea mays); [21]): 0
- Plant response rating, Soybean (soybean (Glycine max); [14]): 85
- Plant response rating, Soybean (soybean (Glycine max); [15]): 80
- Plant response rating, Soybean (soybean (Glycine max); [16]): 85
- Plant response rating, Soybean (soybean (Glycine max); [17]): 90
- Soybean plant response rating (soybean (Glycine max); [18]): 90
- Plant response rating, Soybean (soybean (Glycine max); [19]): 25
- Soybean plant response rating (soybean (Glycine max); [21]): 50
- Plant response rating, Cocklebur [11, 14]: 95
- Plant response rating, Cocklebur [11, 15]: 80
- Plant response rating, Cocklebur [11, 16]: 90
- Plant response rating, Cocklebur [11, 17]: 90
- Cocklebur plant response rating [11, 18]: 98
- Plant response rating, Cocklebur [11, 19]: 0
- Plant response rating, Cocklebur [11, 20]: 85
- Cocklebur plant response rating [11, 21]: 85
- Plant response rating, Lambsquarters [12, 14]: 100
- Plant response rating, Lambsquarters [12, 15]: 85
- Plant response rating, Lambsquarters [12, 16]: 85
- Plant response rating, Lambsquarters [12, 17]: 85
- Lambsquarters plant response rating [12, 18]: 85
- Plant response rating, Lambsquarters [12, 19]: 100
- Plant response rating, Lambsquarters [12, 20]: 100
- Lambsquarters plant response rating [12, 21]: 100
- Plant response rating, Blackgrass [13, 14]: 0
- Plant response rating, Blackgrass [13, 15]: 0
- Plant response rating, Blackgrass [13, 16]: 0
- Plant response rating, Blackgrass [13, 17]: 5
- Blackgrass plant response rating [13, 18]: 5
- Plant response rating, Blackgrass [13, 19]: 0
- Plant response rating, Blackgrass [13, 20]: 0
- Blackgrass plant response rating [13, 21]: 0
